Results as given in PMC12458685, “Thwarting Isomerization through Rigidity: A Promising HBED Derivative for the Chelation of Gallium-68” (Inorganic Chemistry, 2025).
Like-named read-outs stand apart in the source and are kept apart here. Blank lines part the entries; values can stand above or below the compound they belong to.

Legend:
[1] = design: method as in number not given; details: ref number not given, cited from earlier work; for pGa^3+: under the same conditions (pH 7.4, C L = 10 μM, C Ga = 1 μM)
[2] = Acidity constants of HBCD by UV–vis pH-spectrophotometric titration; assay type: physicochemical; details: T = 25 °C, I = 0.15 M NaCl
Description: As the pH increases, the intensity of the band at 275 nm decreases, while two new bands emerge at 241 and 298 nm, with their absorbance progressively increasing. […] These pH-dependent changes in the electronic spectra allowed the determination of the acidity constants (pK a) of HBCD, which are summarized in Table .
(§1) UV–vis pH-spectrophotometric titrations were conducted using the in-cell method for the free HBCD and the out-of-cell method for the Ga^3+-HBCD mixture at T = 25 °C and I = 0.15 M NaCl. In the latter case, stock solutions of HBCD and Ga^3+ were combined in separate vials at 1:1 metal-to-ligand ratio (C Ga = C L = 20–50 μM). Small volumes (μL) of HCl and/or NaOH were used to adjust the pH. pH measurements were performed using a calibrated pH meter (Mettler-Toledo). The vials were sealed and heated to T = 80 °C to ensure complete complexation, then cooled to ambient temperature. The electronic spectra were recorded, and the equilibrium was considered to be reached when no further changes in either the pH or the electronic spectra were observed.

[3] = Acidity constants of HBCD by pH-dependent 1H NMR titration; assay type: physicochemical; details: T = 25 °C, I = 0.15 M NaCl
From the text: The assignment of the other four protonation constants (pK a,3, pK a,4, pK a,5 and pK a,6) is extremely challenging. […] According to NMR data of HBCD, pK a,3 can reasonably be assigned to one of the tertiary ammine. Once this dissociation occurs, the nitrogen atom can form a hydrogen bond with the phenolic group or with the other amine group. The next dissociation (pK a,4) can be attributed to the other phenolic moiety that can be then involved in the formation of the hydrogen bond with the protonated ammine. The last two dissociations can tentatively be attributed to the second phenolic group (pK a,5) and the tertiary amine (pK a,6).
(§2) ^1H NMR spectra of free HBCD or Ga^3+-HBCD mixtures (C L = C Ga = 1 mM) were recorded at T = 25 °C and I = 0.15 M NaCl, in D2O, at different pH. The pH was adjusted following the procedure used in the UV–vis experiments. To account for isotopic effects, 0.41 log units were added to the measured pH values. Under highly acidic conditions, the pH was calculated from the HCl concentration using the formula pH = −log[C(H^+)]. […] Prolonged heating was applied to accelerate the complexation reaction. The thermodynamic data were elaborated with HypSpec, HypNMR or as described in previous publications. , Hydrolysis constants and solubility products of Ga^3+ in aqueous ionic media were taken from ref .

[4] = Thermodynamic stability of Ga^3+-HBCD (UV–vis and 1H NMR in-batch titrations; pGa^3+ calculation); assay type: physicochemical; details: for pGa^3+ (−log[Ga^3+]free): calculated at pH 7.4, C L = 10 μM and C Ga = 1 μM
Description: The thermodynamic stability of Ga^3+-HBCD was evaluated by UV–vis and ^1H NMR spectroscopies. Due to the slow complexation kinetics observed at highly acidic pH values, in-batch titrations were conducted, and heating was applied to speed up the attainment of equilibrium under these conditions. Representative pH-dependent ^1H NMR and UV–vis spectra are reported in Figures S12 and S13, respectively. The overall stability constants (log β) of Ga^3+-HBCD are provided in Table while the corresponding distribution diagram is shown in Figure in comparison with HBED.
To compare the chelating abilities of HBCD and HBED, the pGa^3+ values (pGa^3+ = −log[Ga^3+]free) were calculated under physiological conditions (pH = 7.4, C L = 10 μM and C Ga = 1 μM). This parameter accounts for both ligand basicity and metal-ion hydrolysis, with higher pGa^3+ values indicating greater complex stability under the given conditions.
as §1, §2

[5] = Formation kinetics of Ga^3+-HBCD (1H NMR and UV–vis); assay type: physicochemical
Description: Before the thermodynamic investigation, the formation kinetics of the Ga^3+-HBCD complexes were qualitatively assessed using ^1H NMR and UV–vis spectroscopies at different pH and concentrations to determine the time needed to reach equilibrium. Understanding the equilibration conditions is essential for obtaining accurate thermodynamic data and for gaining an initial insight into the binding capacity of the new chelator.
The formation kinetics of the Ga^3+-HBCD complexes was evaluated at room temperature using ^1H NMR and UV–vis spectroscopies. Equimolar amounts of Ga^3+ and HBCD solutions (final concentrations: 1 mM for ^1H NMR, 50 μM for UV–vis) in buffered media (e.g., pH 2 HCl 10^–2 M, pH 4.5 acetic/acetate buffer). The complexation reaction was tracked by monitoring the increase in peaks characteristic of Ga^3+-ligand complex formation over time.

[6] = Stability of HBCD aqueous stock solution (NMR, ESI-MS, UV–vis); assay type: physicochemical; details: room temperature, up to one month
Description: HBCD stock solutions were prepared by dissolving a weighed amount of ligand directly in Milli-Q water to achieve a concentration of approximately 1 mM. The solubility of HBCD in water depends on pH: minimal values occur at acidic pH, where the noncharged form predominates. To enhance solubility, small amount of NaOH were added, and the solution was sonicated for 15 min. The stability of HBCD at room temperature was confirmed by NMR, ESI-MS and UV–vis measurements conducted over the course of up to one month following solution preparation.

[7] = design: method as in number not given; details: I = 0.10 M KCl, T = 25 °C; literature data, ref number not given; cited from earlier work
[8] = design: method as in number not given; details: for in vivo imaging; ref number not given; cited from earlier work

Compound: O=C(O)CN1CCN(CC(=O)O)CCN(CC(=O)O)CCN(CC(=O)O)CC1 [DOTA, 1,4,7,10-tetraazacyclododecane-1,4,7,10-tetraacetic acid]
pGa^3+ [1]: 18.5

pK a,3 (H4L ⇌ H^+ + H3L^–) ([2]; UV–vis): 5.20 ± 0.06 | pK a,4 (H3L^– ⇌ H^+ + H2L^2–) ([2]; UV–vis): 9.42 ± 0.04 | pK a,5 (H2L^2– ⇌ H^+ + HL^3–) ([2]; UV–vis): 11.94 ± 0.03 | pK a,6 (HL^3– ⇌ H^+ + L^4–) ([2]; UV–vis): 13.2 ± 0.2 | pK a,1 (H6L^2+ ⇌ H^+ + H5L^+) [3]: 1.1 ± 0.2 | pK a,2 (H5L^+ ⇌ H^+ + H4L) [3]: 3.1 ± 0.3 | pK a,3 (H4L ⇌ H^+ + H3L^–) [3]: 4.9 ± 0.4 | pK a,4 (H3L^– ⇌ H^+ + H2L^2–) [3]: 9.7 ± 0.3 | pK a,5 (H2L^2– ⇌ H^+ + HL^3–) [3]: 12.2 ± 0.1 | pK a,6 (HL^3– ⇌ H^+ + L^4–) [3]: 13.5 ± 0.2 | log β, Ga^3+ + H^+ + L^4– ⇌ [GaHL] ([4]; T = 25 °C, I = 0.15 M NaCl): 41.2 ± 0.1 | log β, Ga^3+ + L^4– ⇌ [GaL]^− ([4]; T = 25 °C, I = 0.15 M NaCl): 39.2 ± 0.1 | pGa^3+ (−log[Ga^3+]free) [4]: 27.0 | stability of HBCD in solution [6]: confirmed
Compound: O=C(O)CN(Cc1ccccc1O)[C@@H]1CCCC[C@H]1N(CC(=O)O)Cc1ccccc1O [HBCD, N,N′-di(2-hydroxybenzyl)-(1,2-cyclohexanediamine)-N,N′-diacetic acid]
average value of pK a,1 and pK a,2 ([2]; calculated from UV–vis data): d An average value of pK a,1 and pK a,2 equal to 1.7 ± 0.2 was calculated from UV–vis data. | Ga^3+ complex formation ([5]; pH ∼ 2, room temperature, after 24 h, 1H NMR): no complex formation was observed | time to reach completion of Ga^3+ complexation ([5]; pH ∼ 4.5, 50 μM, UV–vis): approximately 1 h | Ga^3+ complexation rate ([5]; pH ∼ 4.5, mM metal and ligand concentrations, 1H NMR): nearly instantaneous

pGa^3+ (−log[Ga^3+]free) [4]: 29.6
Compound: O=C(O)CN(CCN(CC(=O)O)Cc1ccccc1O)Cc1ccccc1O [HBED, N,N′-di(2-hydroxybenzyl)ethylenediamine-N,N′-diacetic acid]
pK a,2 (H5L^+ ⇌ H^+ + H4L) [7]: 2.24 | pK a,3 (H4L ⇌ H^+ + H3L^–) [7]: 4.40 | pK a,4 (H3L^– ⇌ H^+ + H2L^2–) [7]: 8.34 | pK a,5 (H2L^2– ⇌ H^+ + HL^3–) [7]: 11.03 | pK a,6 (HL^3– ⇌ H^+ + L^4–) [7]: 12.64 | log β, Ga^3+ + H^+ + L^4– ⇌ [GaHL] ([1]; literature data): 40.81 | log β, Ga^3+ + L^4– ⇌ [GaL]^− ([1]; literature data): 38.51

Compound: O=C(O)CN(Cc1cccc(C(=O)O)n1)Cc1cccc(C(=O)O)n1 [dpaa]
serum stability of the [^68Ga]Ga^3+ complex [8]: poor

Compound: transferrin: iron-transporting protein, one of the primary in vivo competitors for Ga^3+
pGa^3+ [1]: 20.3
